Patent publication US20130237511A1, “Copper Ion Delivery Platform for Pharmaceutical Agents” (University System of Georgia, priority 2012, published 2013)

How the values were obtained:
[1] = tested on: SNB-75; experiment: NCI 60 cell line panel, single dose; assay type: cell-based; details: CNS Cancer, SNB-75, single dose
[2] = tested on: SF-268; experiment: NCI 60 cell line panel, single dose; assay type: cell-based; details: CNS Cancer, SF-268, single dose
[3] = tested on: SF-295; experiment: NCI 60 cell line panel, single dose; assay type: cell-based; details: CNS Cancer, SF-295, single dose
[4] = tested on: SF-539; experiment: NCI 60 cell line panel, single dose; assay type: cell-based; details: CNS Cancer, SF-539, single dose
[5] = tested on: U251; experiment: NCI 60 cell line panel, single dose; assay type: cell-based; details: CNS Cancer
[6] = tested on: CAKI-1; experiment: NCI 60 cell line panel, single dose; assay type: cell-based; details: Renal Cancer, CAKI-1, single dose
Excerpt: (§1) This complex performed at a similar level compared to individual tests for copper(II) sulfate as well as quinine sulfate (NSC).

[7] = tested on: HCT-116; experiment: NCI 60 cell line panel, single dose; assay type: cell-based; details: Colon Cancer, HCT-116, single dose
Excerpt: as §1

[8] = tested on: SN12C; experiment: NCI 60 cell line panel, single dose; assay type: cell-based; details: Renal Cancer
Excerpt: as §1

[9] = tested on: OVCAR-5; experiment: NCI 60 cell line panel, single dose; assay type: cell-based; details: Ovarian Cancer, OVCAR-5, single dose
Excerpt: as §1

[10] = tested on: SK-MEL-28; experiment: NCI 60 cell line panel, single dose; assay type: cell-based; details: Melanoma, SK-MEL-28, single dose
Excerpt: as §1

[11] = tested on: UACC-257; experiment: NCI 60 cell line panel, single dose; assay type: cell-based; details: Melanoma, UACC-257, single dose
Excerpt: as §1

[12] = tested on: NCI/ADR-RES; experiment: NCI 60 cell line panel, single dose; assay type: cell-based; details: Ovarian Cancer
Excerpt: as §1

[13] = tested on: BT-549; experiment: NCI 60 cell line panel, single dose; assay type: cell-based; details: Breast Cancer, BT-549, single dose
Excerpt: as §1

[14] = tested on: 786-0; experiment: NCI 60 cell line panel, single dose; assay type: cell-based; details: Renal Cancer, 786-0, single dose
Excerpt: as §1

[15] = tested on: ACHN; experiment: NCI 60 cell line panel, single dose; assay type: cell-based; details: Renal Cancer
Excerpt: as §1

[16] = tested on: MDA-MB-468; experiment: NCI 60 cell line panel, single dose; assay type: cell-based; details: Breast Cancer, MDA-MB-468, single dose
Excerpt: as §1

[17] = tested on: NCI-H522; experiment: NCI 60 cell line panel, single dose; assay type: cell-based; details: Non-Small Cell Lung Cancer
Excerpt: as §1

[18] = tested on: NCI-H226; experiment: NCI 60 cell line panel, single dose; assay type: cell-based; details: Non-Small Cell Lung Cancer
Excerpt: as §1

[19] = tested on: COLO 205; experiment: NCI 60 cell line panel, single dose; assay type: cell-based; details: Colon Cancer, COLO 205, single dose
Excerpt: as §1

[20] = tested on: KM12; experiment: NCI 60 cell line panel, single dose; assay type: cell-based; details: Colon Cancer
Excerpt: as §1

[21] = tested on: SR; experiment: NCI 60 cell line panel, single dose; assay type: cell-based; details: Leukemia
Excerpt: as §1

[22] = tested on: SK-MEL-2; experiment: NCI 60 cell line panel, single dose; assay type: cell-based; details: Melanoma, SK-MEL-2, single dose
Excerpt: as §1

[23] = tested on: CCRF-CEM; experiment: NCI 60 cell line panel, single dose; assay type: cell-based; details: Leukemia
Excerpt: as §1

[24] = tested on: HCT-15; experiment: NCI 60 cell line panel, single dose; assay type: cell-based; details: Colon Cancer, HCT-15, single dose
Excerpt: as §1

[25] = tested on: M14; experiment: NCI 60 cell line panel, single dose; assay type: cell-based; details: Melanoma
Excerpt: as §1

[26] = tested on: MDA-MB-231/ATCC; experiment: NCI 60 cell line panel, single dose; assay type: cell-based; details: Breast Cancer
Excerpt: as §1

[27] = tested on: MDA-MB-435; experiment: NCI 60 cell line panel, single dose; assay type: cell-based; details: Melanoma, MDA-MB-435, single dose
Excerpt: as §1

[28] = tested on: A549/ATCC; experiment: NCI 60 cell line panel, single dose; assay type: cell-based; details: Non-Small Cell Lung Cancer
Excerpt: as §1

[29] = tested on: DU-145; experiment: NCI 60 cell line panel, single dose; assay type: cell-based; details: Prostate Cancer, DU-145, single dose
Excerpt: as §1

[30] = tested on: HL-60(TB); experiment: NCI 60 cell line panel, single dose; assay type: cell-based; details: Leukemia
Excerpt: as §1

[31] = tested on: RXF 393; experiment: NCI 60 cell line panel, single dose; assay type: cell-based; details: Renal Cancer, RXF 393, single dose
Excerpt: as §1

[32] = tested on: OVCAR-3; experiment: NCI 60 cell line panel, single dose; assay type: cell-based; details: Ovarian Cancer, OVCAR-3, single dose
Excerpt: as §1

[33] = tested on: SW-620; experiment: NCI 60 cell line panel, single dose; assay type: cell-based; details: Colon Cancer, SW-620, single dose
Excerpt: as §1

[34] = tested on: TK-10; experiment: NCI 60 cell line panel, single dose; assay type: cell-based; details: Renal Cancer, TK-10, single dose
Excerpt: as §1

[35] = tested on: EKVX; experiment: NCI 60 cell line panel, single dose; assay type: cell-based; details: Non-Small Cell Lung Cancer
Excerpt: as §1

[36] = tested on: MOLT-4; experiment: NCI 60 cell line panel, single dose; assay type: cell-based; details: Leukemia, MOLT-4, single dose
Excerpt: as §1

[37] = tested on: UO-31; experiment: NCI 60 cell line panel, single dose; assay type: cell-based; details: Renal Cancer, UO-31, single dose
Excerpt: as §1

[38] = tested on: MALME-3M; experiment: NCI 60 cell line panel, single dose; assay type: cell-based; details: Melanoma
Excerpt: as §1

[39] = tested on: SK-OV-3; experiment: NCI 60 cell line panel, single dose; assay type: cell-based; details: Ovarian Cancer, SK-OV-3, single dose
Excerpt: as §1

[40] = tested on: HT29; experiment: NCI 60 cell line panel, single dose; assay type: cell-based; details: Colon Cancer
Excerpt: as §1

[41] = tested on: T-47D; experiment: NCI 60 cell line panel, single dose; assay type: cell-based; details: Breast Cancer
Excerpt: as §1

[42] = tested on: MCF7; experiment: NCI 60 cell line panel, single dose; assay type: cell-based; details: Breast Cancer
Excerpt: as §1

[43] = tested on: OVCAR-8; experiment: NCI 60 cell line panel, single dose; assay type: cell-based; details: Ovarian Cancer, OVCAR-8, single dose
Excerpt: as §1

[44] = tested on: HOP-62; experiment: NCI 60 cell line panel, single dose; assay type: cell-based; details: Non-Small Cell Lung Cancer, HOP-62, single dose
Excerpt: as §1

[45] = tested on: UACC-62; experiment: NCI 60 cell line panel, single dose; assay type: cell-based; details: Melanoma, UACC-62, single dose
Excerpt: as §1

[46] = tested on: RPMI-8226; experiment: NCI 60 cell line panel, single dose; assay type: cell-based; details: Leukemia, RPMI-8226, single dose
Excerpt: as §1

[47] = tested on: HS 578T; experiment: NCI 60 cell line panel, single dose; assay type: cell-based; details: Breast Cancer
Excerpt: as §1

[48] = tested on: NCI-H322M; experiment: NCI 60 cell line panel, single dose; assay type: cell-based; details: Non-Small Cell Lung Cancer
Excerpt: as §1

[49] = tested on: HCC-2998; experiment: NCI 60 cell line panel, single dose; assay type: cell-based; details: Colon Cancer, HCC-2998, single dose
Excerpt: as §1

[50] = tested on: NCI-H23; experiment: NCI 60 cell line panel, single dose; assay type: cell-based; details: Non-Small Cell Lung Cancer
Excerpt: as §1

[51] = tested on: NCI-H460; experiment: NCI 60 cell line panel, single dose; assay type: cell-based; details: Non-Small Cell Lung Cancer
Excerpt: as §1

[52] = tested on: LOX IMVI; experiment: NCI 60 cell line panel, single dose; assay type: cell-based; details: Melanoma
Excerpt: as §1

[53] = tested on: OVCAR-4; experiment: NCI 60 cell line panel, single dose; assay type: cell-based; details: Ovarian Cancer, OVCAR-4, single dose
Excerpt: as §1

[54] = tested on: IGROV1; experiment: NCI 60 cell line panel, single dose; assay type: cell-based; details: Ovarian Cancer
Excerpt: as §1

[55] = tested on: HOP-92; experiment: NCI 60 cell line panel, single dose; assay type: cell-based; details: Non-Small Cell Lung Cancer, HOP-92, single dose
Excerpt: as §1

[56] = tested on: SNB-19; experiment: NCI 60 cell line panel, single dose; assay type: cell-based; details: CNS Cancer, SNB-19, single dose
[57] = ionic strengths 0.01 to 1, 25 and 37° C.; cited from earlier work

Compound: copper(II)-(quinine)2^+ [CuQ2]
- Growth Percent [1]: 126.4%
- Growth Percent [2]: 125.4%
- Growth Percent [3]: 85.7%
- Growth Percent [4]: 102.4%
- Growth Percent [5]: 83.16%
- Growth Percent [6]: 109.9%
- Growth Percent [7]: 96.95%
- Growth Percent [8]: 109.4%
- Growth Percent [9]: 116.2%
- Growth Percent [10]: 109.2%
- Growth Percent [11]: 93.34%
- Growth Percent [12]: 105%
- Growth Percent [13]: 107.4%
- Growth Percent [14]: 120.5%
- Growth Percent [15]: 100.6%
- Growth Percent [16]: 117.8%
- Growth Percent [17]: 94.89%
- Growth Percent [18]: 103.6%
- Growth Percent [19]: 91.74%
- Growth Percent [20]: 91.04%
- Growth Percent [21]: 80.32%
- Growth Percent [22]: 95.24%
- Growth Percent [23]: 100.1%
- Growth Percent [24]: 98.35%
- Growth Percent [25]: 101.1%
- Growth Percent [26]: 82.36%
- Growth Percent [27]: 91.47%
- Growth Percent [28]: 88.43%
- Growth Percent [29]: 113.3%
- Growth Percent [30]: 106.2%
- Growth Percent [31]: 139.9%
- Growth Percent [32]: 120%
- Growth Percent [33]: 111%
- Growth Percent [34]: 115%
- Growth Percent [35]: 119.3%
- Growth Percent [36]: 96.49%
- Growth Percent [37]: 92.23%
- Growth Percent [38]: 105.7%
- Growth Percent [39]: 95.07%
- Growth Percent [40]: 84.68%
- Growth Percent [41]: 100.1%
- Growth Percent [42]: 84.97%
- Growth Percent [43]: 103.8%
- Growth Percent [44]: 132.7%
- Growth Percent [45]: 84.78%
- Growth Percent [46]: 105.8%
- Growth Percent [47]: 117.5%
- Growth Percent [48]: 119.9%
- Growth Percent [49]: 108.9%
- Growth Percent [50]: 104.3%
- Growth Percent [51]: 105.8%
- Growth Percent [52]: 80.61%
- Growth Percent [53]: 110.4%
- Growth Percent [54]: 124.1%
- Growth Percent [55]: 88.14%
- Growth Percent [56]: 108.7%

Compound: C=C[C@H]1C[N@@]2CC[C@H]1C[C@H]2[C@H](O)c1ccnc2ccc(OC)cc12 [Quinine]
- pKa1 [57]: approximately 4.2
- pKa2 [57]: 8.5
